Read-outs that look alike come from different tables or passages of the source.
Assays:
[1] = not given; remark: listed apart in the source
[2] = biological target: purified human Factor XIa (Homo sapiens (Human), UniProt P03951); test: Factor XIa enzyme inhibition assay (chromogenic substrate S-2366); type: biochemical; settings: substrate S-2366, pH 7.4
Procedure: The effectiveness of compounds of the present invention as inhibitors of the coagulation Factors XIa, VIIa, IXa, Xa, XIIa, plasma kallikrein or thrombin, can be determined using a relevant purified serine protease, respectively, and an appropriate synthetic substrate. The rate of hydrolysis of the chromogenic or fluorogenic substrate by the relevant serine protease was measured both in the absence and presence of compounds of the present invention. […] A decrease in the rate of absorbance or fluorescence change in the presence of inhibitor is indicative of enzyme inhibition. Such methods are known to one skilled in the art. The results of this assay are expressed as the inhibitory constant, Ki.
Values of Ki were determined by allowing the protease to react with the substrate in the presence of the inhibitor. Reactions were allowed to go for periods of 20-180 minutes (depending on the protease) and the velocities (rate of absorbance or fluorescence change versus time) were measured. The following relationships were used to calculate Ki values: (vo−vs)/vs=I/(Ki(1+S/Km)) for a competitive inhibitor with one binding site; or vs/vo=A+((B−A)/1+((IC50/(I)n))); and Ki=IC50/(1+S/Km) for a competitive inhibitor where: […]

[3] = from C=CCCCc1ccccc1-c1cn(COCC[Si](C)(C)C)c([C@H](CC=C)NC(=O)OC(C)(C)C)n1, rcm bond, 12-membered ring, Grubbs II (0.4 eq)/pTsOH, DCM, 0.97 mM, 40.0 °C, 1.0 h
[4] = from C=CCCOc1ccccc1-c1cn(COCC[Si](C)(C)C)c([C@H](CC=C)NC(=O)OC(C)(C)C)n1, rcm bond, 12-membered ring, Grubbs II (1 eq)/pTsOH, DCM, 1.02 mM, 40.0 °C, 1.0 h

Sequence of purified human Factor XIa (P03951 388-625): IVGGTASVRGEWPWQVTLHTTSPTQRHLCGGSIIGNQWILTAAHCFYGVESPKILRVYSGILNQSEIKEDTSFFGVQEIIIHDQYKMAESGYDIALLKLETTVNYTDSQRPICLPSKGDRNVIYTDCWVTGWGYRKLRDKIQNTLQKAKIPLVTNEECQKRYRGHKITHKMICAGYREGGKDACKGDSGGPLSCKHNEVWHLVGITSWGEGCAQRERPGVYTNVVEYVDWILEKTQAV
Sequence of purified human Factor XIa (P03951 19-387 partner): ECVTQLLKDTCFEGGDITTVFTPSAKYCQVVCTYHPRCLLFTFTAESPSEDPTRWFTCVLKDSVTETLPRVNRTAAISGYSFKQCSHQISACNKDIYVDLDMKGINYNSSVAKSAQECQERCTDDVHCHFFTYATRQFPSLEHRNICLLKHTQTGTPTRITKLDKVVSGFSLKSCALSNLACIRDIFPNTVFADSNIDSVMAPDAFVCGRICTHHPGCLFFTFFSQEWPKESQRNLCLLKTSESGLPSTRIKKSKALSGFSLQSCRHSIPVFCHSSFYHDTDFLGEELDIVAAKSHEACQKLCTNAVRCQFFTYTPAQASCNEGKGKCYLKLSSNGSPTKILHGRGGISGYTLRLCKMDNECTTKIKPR

Compound: COC(=O)Nc1ccc2c(c1)N[C@@H](C(=O)OC)CC=CC[C@H](NC(=O)OC(C)(C)C)c1nc-2cn1COCC[Si](C)(C)C
- ring closure, isolated yield (from C=CC[C@H](NC(=O)OC(C)(C)C)c1nc(-c2ccc(NC(=O)OC)cc2N[C@H](CC=C)C(=O)OC)cn1COCC[Si](C)(C)C, rcm bond, 12-membered ring, Grubbs II (0.4 eq), DCE, 40.0 mM, 120.0 °C, 0.33 h): 30%

Compound: CC(C)(C)OC(=O)N[C@H]1C/C=C\CCCc2ccccc2-c2cn(COCC[Si](C)(C)C)c1n2
- ring closure, isolated yield [3]: 17.6%

Compound: CC(C)(C)OC(=O)N[C@H]1C/C=C/CCOc2ccccc2-c2cn(COCC[Si](C)(C)C)c1n2
- ring closure, isolated yield [4]: 20%

Compound: COC(=O)Nc1ccc2c(c1)NC(=O)CC/C=C/C[C@H](NC(=O)OC(C)(C)C)c1cc-2ccn1
- ring closure, yield after HPLC ([1]; from C=CCCC(=O)Nc1cc(NC(=O)OC)ccc1-c1ccnc([C@H](CC=C)NC(=O)OC(C)(C)C)c1, rcm bond, 13-membered ring, Grubbs II/pTsOH, DCM, 0.99 mM, 40.0 °C, 1.5 h): 75%

Compound: COC(=O)Nc1ccc2c(c1)N[C@@H](C(=O)NCc1ccccn1)CCCC[C@H](NC(=O)/C=C/c1cc(Cl)ccc1-n1cnnn1)c1cc-2ccn1 [II-58]
- Ki [2]: 21 nM

Compound: CC(C)(C)OC(=O)N[C@H]1C/C=C\CCOc2ccccc2-c2cn(COCC[Si](C)(C)C)c1n2
- ring closure, isolated yield [4]: 9%

Compound: COC(=O)Nc1ccc2c(c1)NC(=O)C/C=C/CC(NC(=O)OC(C)(C)C)c1cc-2nc(C)n1 (centres unmarked)
- ring closure, isolated yield (from C=CCC(=O)Nc1cc(NC(=O)OC)ccc1-c1cc(C(CC=C)NC(=O)OC(C)(C)C)nc(C)n1, rcm bond, 12-membered ring, Grubbs II (0.4 eq)/HCl, DCM, 0.5 mM, 40.0 °C, 4.0 h): 22%

Compound: COC(=O)Nc1ccc2c(c1)CCCN(C)C(=O)C[C@H](NC(=O)OC(C)(C)C)c1nc-2cn1COCC[Si](C)(C)C
- ring closure, isolated yield (from CNCCCc1cc(NC(=O)OC)ccc1-c1cn(COCC[Si](C)(C)C)c([C@H](CC(=O)O)NC(=O)OC(C)(C)C)n1, amide bond, 12-membered ring, BOP/DIEA/DMAP, DCM/DMF, 8.6 mM, 25.0 °C, 2.0 h): 39.4%

Compound: COC(=O)Nc1ccc2c(c1)NC(=O)CC/C=C/CC(NC(=O)OC(C)(C)C)c1cc-2nnc1Cl (centres unmarked)
- ring closure, isolated yield (from C=CCCC(=O)Nc1cc(NC(=O)OC)ccc1-c1cc(C(CC=C)NC(=O)OC(C)(C)C)c(Cl)nn1, rcm bond, 13-membered ring, Grubbs II, DCM, 6.6 mM, 1.0 h): 56%

Compound: COC(=O)Nc1ccc2c(c1)NC(=O)CC/C=C/CC(NC(=O)/C=C/c1cc(Cl)ccc1-n1cnnn1)c1cc-2nnc1Cl (centres unmarked) [Example 89, {(E)-17-Chloro-15-[(E)-3-(5-chloro-2-tetrazol-1-yl-phenyl)-acryloylamino]-9-oxo-8,18,19-triaza-tricyclo[14.3.1.0^2,7]icosa-1(20),2,4,6,12,16,18-heptaen-5-yl}-carbamic Acid Methyl Ester]
- Ki [2]: 1060 nM

Compound: COC(=O)Nc1ccc2c(c1)NC(=O)CCN(C(=O)OC(C)(C)C)C[C@H](NC(=O)OCc1ccccc1)c1nc-2cn1COCC[Si](C)(C)C
- ring closure, isolated yield (from COC(=O)Nc1ccc(-c2cn(COCC[Si](C)(C)C)c([C@H](CN(CCC(=O)O)C(=O)OC(C)(C)C)NC(=O)OCc3ccccc3)n2)c(N)c1, amide bond, 12-membered ring, BOP/DIEA, DCM/DMF, 0.93 mM, 25.0 °C, 5.0 h): 87%

Compound: CC(C)(C)OC(=O)N[C@H]1C/C=C\CCC(=O)Nc2ccccc2C2=NN=C1O2 (mixture of isomers)
- ring closure, yield after HPLC ([1]; from C=CCCC(=O)Nc1ccccc1-c1nnc([C@H](CC=C)NC(=O)OC(C)(C)C)o1, rcm bond, 13-membered ring, Grubbs II, DCM, 4.8 mM, 75.0 °C, 1.5 h): 27%

Compound: COC(=O)Nc1ccc2c(c1)NC(=O)CC/C=C/C[C@H](NC(=O)OC(C)(C)C)C1=NN=C2O1
- ring closure, isolated yield (from -[5-((S)-1-tert-Butoxycarbonylamino-but-3-enyl)-1,3,4-oxadiazol-2-yl]-3-pent-4-enoylamino-phenyl}-carbamic acid methyl ester, rcm bond, 13-membered ring, Grubbs II (0.36 eq), DCE, 0.61 mM, 75.0 °C): 19.1%

Compound: (S)-Methyl N-4-(2-(1-(tert-butoxycarbonylamino)but-3-enyl)-1-((2-(trimethylsilyl)ethoxy)methyl)-1H-imidazol-4-yl)-3-(4-methylpent-4-enamido)phenylmethanimidoperoxoate
- ring closure, isolated yield (the molecule shown is the open-chain precursor, rcm bond, 13-membered ring, Grubbs II (0.2 eq), microwave, DCE, 105.0 mM, 120.0 °C): 34.6%

Compound: CC(C)(C)OC(=O)N[C@H]1C/C=C/CCCc2ccccc2-c2cn(COCC[Si](C)(C)C)c1n2
- ring closure, isolated yield [3]: 45.3%

Compound: COC(=O)Nc1ccc2c(c1)N(C(=O)C(F)(F)F)[C@@H](C(=O)OC)CC=CC[C@H](NC(=O)OC(C)(C)C)c1nc-2cn1COCC[Si](C)(C)C
- ring closure, isolated yield (from C=CC[C@H](NC(=O)OC(C)(C)C)c1nc(-c2ccc(NC(=O)OC)cc2N(C(=O)C(F)(F)F)[C@H](CC=C)C(=O)OC)cn1COCC[Si](C)(C)C, rcm bond, 12-membered ring, Grubbs II (15 mol%), DCE, 37.3 mM, 84.0 °C, 15.0 h): 37%

Compound: COC(=O)c1ccc2c(c1)OCCNC(=O)CC(NC(=O)OC(C)(C)C)c1cc-2nnc1Cl (centres unmarked)
- ring closure, yield after HPLC ([1]; from COC(=O)c1ccc(-c2cc(C(CC(=O)O)NC(=O)OC(C)(C)C)c(Cl)nn2)c(OCCN)c1, amide bond, 12-membered ring, BOP/DIEA/DMAP, DCM/DMF, 1.28 mM, 2.5 h): 15.3%

Reference: US11136327B2, “Macrocycles as factor XIA inhibitors” (Bristol-Myers Squibb Company, priority 2010, dated 2021)
